Source: PMC5218480 (PLoS ONE, 2017)

Test system: MV-4-11 cells
Experiment: Gene expression microarray analysis (Affymetrix PrimeView) and GSEA
Type: cell-based, human
Design: RFU PODN (11730768_x_at) / Fold change /veh PODN (11730768_x_at) / RFU LINC00158 (11744669_a_at) / Fold change /veh LINC00158 (11744669_a_at) / RFU DUSP10 (11751237_a_at) / Fold change /veh DUSP10 (11751237_a_at) / RFU ID3 (11757404_x_at) / Fold change /veh ID3 (11757404_x_at) / RFU PLEKHG5 (11737974_s_at) / Fold change /veh PLEKHG5 (11737974_s_at) / RFU LRRC4B (11730491_at) / Fold change /veh LRRC4B (11730491_at) / RFU GIMAP4 (11747438_a_at) / Fold change /veh GIMAP4 (11747438_a_at) / RFU KRT8 (11758183_x_at) / Fold change /veh KRT8 (11758183_x_at) / RFU CNN1 (11734310_a_at) / Fold change /veh CNN1 (11734310_a_at) / RFU VPS37D (11726825_at) / Fold change /veh VPS37D (11726825_at) / RFU C10orf10 (11716522_x_at) / Fold change /veh C10orf10 (11716522_x_at) / RFU KIR2DL2 /// KIR2DL4 /// KIR2DL5A /// KIR2DL5B /// KIR2DS1 /// KIR2DS2 /// KIR2DS3 /// KIR2DS4 /// KIR3DL3 /// KIR3DL3 /// KIR3DS1 (11738374_at) / Fold change /veh KIR2DL2 /// KIR2DL4 /// KIR2DL5A /// KIR2DL5B /// KIR2DS1 /// KIR2DS2 /// KIR2DS3 /// KIR2DS4 /// KIR3DL3 /// KIR3DL3 /// KIR3DS1 (11738374_at) / RFU C1QL1 (11718748_at) / Fold change /veh C1QL1 (11718748_at) / RFU TMPRSS4 (11747572_a_at) / Fold change /veh TMPRSS4 (11747572_a_at) / RFU HAMP (11756126_x_at) / Fold change /veh HAMP (11756126_x_at) / RFU RNFT2 (11725882_a_at) / Fold change /veh RNFT2 (11725882_a_at) / RFU NR4A2 (11747474_a_at) / Fold change /veh NR4A2 (11747474_a_at) / RFU ABCC12 (11746883_a_at) / Fold change /veh ABCC12 (11746883_a_at) / RFU TMEM136 (11760407_x_at) / Fold change /veh TMEM136 (11760407_x_at) / RFU CLDN22 /// WWC2 (11732394_at) / Fold change /veh CLDN22 /// WWC2 (11732394_at) / RFU HLA-DPB1 (11760878_x_at) / Fold change /veh HLA-DPB1 (11760878_x_at) / RFU SPINT1 (11716480_a_at) / Fold change /veh SPINT1 (11716480_a_at) / RFU GAP43 (11754022_s_at) / Fold change /veh GAP43 (11754022_s_at) / RFU A4GNT (11735810_at) / Fold change /veh A4GNT (11735810_at) / RFU PRB3 (11715151_x_at) / Fold change /veh PRB3 (11715151_x_at) / RFU TUBB4B (11761932_at) / Fold change /veh TUBB4B (11761932_at) / RFU CAPN14 (11732068_a_at) / Fold change /veh CAPN14 (11732068_a_at) / RFU TMCC2 (11721928_a_at) / Fold change /veh TMCC2 (11721928_a_at) / RFU IRGQ (11745062_a_at) / Fold change /veh IRGQ (11745062_a_at) / RFU FAM174B (11720279_a_at) / Fold change /veh FAM174B (11720279_a_at) / RFU TMPRSS4 (11748680_a_at) / Fold change /veh TMPRSS4 (11748680_a_at) / RFU FAM212B (11763350_a_at) / Fold change /veh FAM212B (11763350_a_at) / RFU PLEKHG5 (11743358_a_at) / Fold change /veh PLEKHG5 (11743358_a_at) / RFU ZSCAN30 (11745921_a_at) / Fold change /veh ZSCAN30 (11745921_a_at) / RFU CMKLR1 (11741424_a_at) / Fold change /veh CMKLR1 (11741424_a_at) / RFU LOC101060620 /// MAPK8IP1 (11723275_at) / Fold change /veh LOC101060620 /// MAPK8IP1 (11723275_at) / RFU SPTSSB (11747773_x_at) / Fold change /veh SPTSSB (11747773_x_at) / RFU PRSS12 (11739890_at) / Fold change /veh PRSS12 (11739890_at) / RFU BIN1 (11741810_x_at) / Fold change /veh BIN1 (11741810_x_at) / RFU WNT11 (11732464_a_at) / Fold change /veh WNT11 (11732464_a_at) / RFU C10orf10 (11716521_a_at) / Fold change /veh C10orf10 (11716521_a_at) / RFU C5orf56 (11738089_at) / Fold change /veh C5orf56 (11738089_at) / RFU CYB561 (11721691_x_at) / Fold change /veh CYB561 (11721691_x_at) / RFU ANKRD19P (11752326_a_at) / Fold change /veh ANKRD19P (11752326_a_at) / RFU OR2T12 /// OR2T33 /// OR2T8 (11738714_s_at) / Fold change /veh OR2T12 /// OR2T33 /// OR2T8 (11738714_s_at) / RFU VCAN (11748164_a_at) / Fold change /veh VCAN (11748164_a_at) / RFU JSRP1 (11732532_at) / Fold change /veh JSRP1 (11732532_at) / RFU KRTAP10-11 (11738290_x_at) / Fold change /veh KRTAP10-11 (11738290_x_at) / RFU MYO3A (11730013_a_at) / Fold change /veh MYO3A (11730013_a_at) / RFU EBF3 (11725865_a_at) / Fold change /veh EBF3 (11725865_a_at) / RFU CAMK2N1 (11719241_x_at) / Fold change /veh CAMK2N1 (11719241_x_at) / RFU C5orf56 (11738088_a_at) / Fold change /veh C5orf56 (11738088_a_at) / RFU OLFML3 (11715873_a_at) / Fold change /veh OLFML3 (11715873_a_at) / RFU LOC100653217 /// NTM (11731650_a_at) / Fold change /veh LOC100653217 /// NTM (11731650_a_at) / RFU MAPK11 (11762145_a_at) / Fold change /veh MAPK11 (11762145_a_at) / RFU FIZ1 (11724087_x_at) / Fold change /veh FIZ1 (11724087_x_at) / RFU OASL (11726364_x_at) / Fold change /veh OASL (11726364_x_at) / RFU SOX15 (11748057_x_at) / Fold change /veh SOX15 (11748057_x_at) / RFU CD79A (11719716_a_at) / Fold change /veh CD79A (11719716_a_at) / RFU HIST1H1D (11736915_at) / Fold change /veh HIST1H1D (11736915_at) / RFU CASKIN2 (11723855_a_at) / Fold change /veh CASKIN2 (11723855_a_at) / RFU LOC730098 (11760151_x_at) / Fold change /veh LOC730098 (11760151_x_at) / RFU OR4N2 (11742367_at) / Fold change /veh OR4N2 (11742367_at) / RFU PRRT2 (11749266_a_at) / Fold change /veh PRRT2 (11749266_a_at) / RFU SNX32 (11753110_a_at) / Fold change /veh SNX32 (11753110_a_at) / RFU CDHR5 (11726645_a_at) / Fold change /veh CDHR5 (11726645_a_at) / RFU RCAN1 (11760418_a_at) / Fold change /veh RCAN1 (11760418_a_at) / RFU FAM167A (11723789_a_at) / Fold change /veh FAM167A (11723789_a_at) / RFU FAM26E (11764081_at) / Fold change /veh FAM26E (11764081_at) / RFU ISYNA1 (11749810_s_at) / Fold change /veh ISYNA1 (11749810_s_at) / RFU ACY1 (11761880_at) / Fold change /veh ACY1 (11761880_at) / RFU 11764098_at / Fold change /veh 11764098_at / RFU SAMD14 (11745864_x_at) / Fold change /veh SAMD14 (11745864_x_at) / RFU NPB (11741838_a_at) / Fold change /veh NPB (11741838_a_at) / RFU TMPRSS6 (11731388_a_at) / Fold change /veh TMPRSS6 (11731388_a_at) / RFU KRTAP10-2 (11738614_at) / Fold change /veh KRTAP10-2 (11738614_at) / RFU ARHGAP8 /// PRR5-ARHGAP8 (11727945_x_at) / Fold change /veh ARHGAP8 /// PRR5-ARHGAP8 (11727945_x_at) / RFU KRTAP5-7 /// NADSYN1 (11734609_at) / Fold change /veh KRTAP5-7 /// NADSYN1 (11734609_at) / RFU RASL12 (11751679_a_at) / Fold change /veh RASL12 (11751679_a_at) / RFU CDKN2B (11736163_a_at) / Fold change /veh CDKN2B (11736163_a_at) / RFU PRF1 (11729649_at) / Fold change /veh PRF1 (11729649_at) / RFU, ZNF638 /// ZNF638-IT1 / Fold change vs veh, ZNF638 /// ZNF638-IT1 / RFU, PANK3 / Fold change vs veh, PANK3 / RFU, SH3YL1 / Fold change vs veh, SH3YL1 / RFU, ZEB2 / Fold change vs veh, ZEB2 / RFU, NRIP1 / Fold change vs veh, NRIP1 / RFU, PTTG1IP / Fold change vs veh, PTTG1IP / RFU, CAPN2 / Fold change vs veh, CAPN2 / RFU, MED14 / Fold change vs veh, MED14 / RFU, SNORA58 / Fold change vs veh, SNORA58 / RFU, C1orf63 / Fold change vs veh, C1orf63 / RFU, LRRFIP1 / Fold change vs veh, LRRFIP1 / RFU, NDUFAF7 / Fold change vs veh, NDUFAF7 / RFU, SLC12A2 / Fold change vs veh, SLC12A2 / RFU, IBTK / Fold change vs veh, IBTK / RFU, ESF1 / Fold change vs veh, ESF1 / Fold change vs veh, TMEM50B / RFU, TAOK1 / Fold change vs veh, TAOK1 / RFU, ACBD3 / Fold change vs veh, ACBD3 / RFU, TMA16 / Fold change vs veh, TMA16 / RFU, RWDD3 / Fold change vs veh, RWDD3 / RFU, BCAT1 / Fold change vs veh, BCAT1 / RFU, EDEM3 / Fold change vs veh, EDEM3 / RFU, TMEM33 / Fold change vs veh, TMEM33 / RFU, WDR75 / Fold change vs veh, WDR75 / RFU, AHCTF1 / Fold change vs veh, AHCTF1 / RFU, TFRC / Fold change vs veh, TFRC / RFU, ZDHHC17 / Fold change vs veh, ZDHHC17 / RFU, NOM1 / Fold change vs veh, NOM1 / RFU, ARL8B / Fold change vs veh, ARL8B / RFU, ZBTB11 / Fold change vs veh, ZBTB11 / RFU, TAMM41 / Fold change vs veh, TAMM41 / RFU, KIAA1704 /// LOC100996395 / Fold change vs veh, KIAA1704 /// LOC100996395 / RFU, ING1 / Fold change vs veh, ING1 / RFU, TRMT61B / Fold change vs veh, TRMT61B / RFU, FUBP3 / Fold change vs veh, FUBP3 / RFU, TP53 / Fold change vs veh, TP53 / RFU, TNKS2 / Fold change vs veh, TNKS2 / RFU, ZFP14 / Fold change vs veh, ZFP14 / RFU, ACTR2 / Fold change vs veh, ACTR2 / RFU, PPP3R1 / Fold change vs veh, PPP3R1 / RFU, PIK3R1 / Fold change vs veh, PIK3R1 / RFU, HNRNPA1 / Fold change vs veh, HNRNPA1 / RFU, RNF170 / Fold change vs veh, RNF170 / RFU, ZNF28 / Fold change vs veh, ZNF28 / RFU, RNGTT / Fold change vs veh, RNGTT / RFU, OGT / Fold change vs veh, OGT / RFU, BRD1 / Fold change vs veh, BRD1 / RFU, MARS / Fold change vs veh, MARS / RFU, ZNF655 / Fold change vs veh, ZNF655 / RFU, FAHD1 / Fold change vs veh, FAHD1 / RFU, BDP1 / Fold change vs veh, BDP1 / RFU, LRRCC1 / Fold change vs veh, LRRCC1 / RFU, ARID1A / Fold change vs veh, ARID1A / RFU, ZNF146 / Fold change vs veh, ZNF146 / RFU, ZNF330 / Fold change vs veh, ZNF330 / RFU, GPN3 / Fold change vs veh, GPN3 / RFU, C9orf123 / Fold change vs veh, C9orf123 / RFU, N4BP2L2 / Fold change vs veh, N4BP2L2 / RFU, ARFIP1 / Fold change vs veh, ARFIP1 / RFU, FAM179B / Fold change vs veh, FAM179B / RFU, BCL10 / Fold change vs veh, BCL10 / RFU, UHRF1BP1L / Fold change vs veh, UHRF1BP1L / RFU, BET1 / Fold change vs veh, BET1 / RFU, CNOT2 / Fold change vs veh, CNOT2 / RFU, ZNF268 / Fold change vs veh, ZNF268 / Fold change vs veh, ZNF507 / RFU, DGCR2 / Fold change vs veh, DGCR2 / RFU, WDSUB1 / Fold change vs veh, WDSUB1 / Fold change vs veh, HSP90B1 /// MIR3652 / RFU, ADSS / Fold change vs veh, ADSS / RFU, GK / Fold change vs veh, GK / RFU, ZNF148 / Fold change vs veh, ZNF148 / RFU, TAF9 / Fold change vs veh, TAF9 / RFU, SLC1A5 / Fold change vs veh, SLC1A5 / RFU, SLMO2 / Fold change vs veh, SLMO2 / RFU, ABCC4 / Fold change vs veh, ABCC4 / RFU, LOC101060439 /// RAP1B / Fold change vs veh, LOC101060439 /// RAP1B / RFU, RFX7 / Fold change vs veh, RFX7 / RFU, GTPBP10 / Fold change vs veh, GTPBP10 / RFU, CNEP1R1 / Fold change vs veh, CNEP1R1 / RFU, BIVM-ERCC5 /// ERCC5 / Fold change vs veh, BIVM-ERCC5 /// ERCC5 / RFU, ILF3 / Fold change vs veh, ILF3 / RFU 11762660_at / Fold change /veh 11762660_at / RFU VCAN (11757783_s_at) / Fold change /veh VCAN (11757783_s_at) / RFU DDX43 (11728927_at) / Fold change /veh DDX43 (11728927_at) / RFU KRT8 (11758188_x_at) / Fold change /veh KRT8 (11758188_x_at) / RFU NKD1 (11759106_at) / Fold change /veh NKD1 (11759106_at) / RFU SRD5A1 (11742802_a_at) / Fold change /veh SRD5A1 (11742802_a_at) / RFU TPSAB1 /// TPSB2 (11721975_s_at) / Fold change /veh TPSAB1 /// TPSB2 (11721975_s_at) / RFU GSTM3 (11746129_a_at) / Fold change /veh GSTM3 (11746129_a_at) / RFU IL23R (11737362_x_at) / Fold change /veh IL23R (11737362_x_at) / RFU TMEM51 (11727254_a_at) / Fold change /veh TMEM51 (11727254_a_at) / RFU PIWIL2 (11732686_x_at) / Fold change /veh PIWIL2 (11732686_x_at) / RFU ORM1 (11744905_x_at) / Fold change /veh ORM1 (11744905_x_at) / RFU CCDC152 (11743942_at) / Fold change /veh CCDC152 (11743942_at) / RFU ECM1 (11717891_a_at) / Fold change /veh ECM1 (11717891_a_at) / RFU IL23R (11748794_a_at) / Fold change /veh IL23R (11748794_a_at) / RFU TNFAIP8L3 (11732012_x_at) / Fold change /veh TNFAIP8L3 (11732012_x_at) / RFU MBOAT4 (11741988_at) / Fold change /veh MBOAT4 (11741988_at) / RFU 11764193_at / Fold change /veh 11764193_at / RFU TMEM53 (11763286_at) / Fold change /veh TMEM53 (11763286_at) / RFU MAGEB2 (11727129_at) / Fold change /veh MAGEB2 (11727129_at) / RFU TMEM200A (11744735_a_at) / Fold change /veh TMEM200A (11744735_a_at) / RFU CCDC152 (11751479_a_at) / Fold change /veh CCDC152 (11751479_a_at) / RFU FAM211A (11726209_a_at) / Fold change /veh FAM211A (11726209_a_at) / RFU RGS16 (11746705_a_at) / Fold change /veh RGS16 (11746705_a_at) / RFU VCAN (11755009_s_at) / Fold change /veh VCAN (11755009_s_at) / RFU RHOB (11743442_s_at) / Fold change /veh RHOB (11743442_s_at) / RFU RGS16 (11720943_a_at) / Fold change /veh RGS16 (11720943_a_at) / RFU RGS16 (11720944_at) / Fold change /veh RGS16 (11720944_at) / RFU, VPS4B / Fold change vs veh, VPS4B / RFU, CREB1 / Fold change vs veh, CREB1 / RFU, DNAJC13 / Fold change vs veh, DNAJC13 / RFU, GNAQ / Fold change vs veh, GNAQ / RFU, CDK5R1 / Fold change vs veh, CDK5R1 / RFU, ZRANB3 / Fold change vs veh, ZRANB3 / RFU, CUL4A / Fold change vs veh, CUL4A / RFU, CCNY / Fold change vs veh, CCNY / RFU, UFL1 / Fold change vs veh, UFL1 / RFU, COG3 / Fold change vs veh, COG3 / RFU, DIAPH2 / Fold change vs veh, DIAPH2 / RFU, SKA2 / Fold change vs veh, SKA2 / RFU, AFF3 / Fold change vs veh, AFF3 / RFU, LMF1 / Fold change vs veh, LMF1 / RFU, IPO11 / Fold change vs veh, IPO11 / RFU, DFFB / Fold change vs veh, DFFB / RFU, FOXP1 / Fold change vs veh, FOXP1 / RFU, CARD8 / Fold change vs veh, CARD8 / RFU, STRN3 / Fold change vs veh, STRN3 / RFU, ADK / Fold change vs veh, ADK / RFU, RASSF2 / Fold change vs veh, RASSF2 / RFU, WIPF1 / Fold change vs veh, WIPF1 / RFU, LARP1B / Fold change vs veh, LARP1B / RFU, RASA1 / Fold change vs veh, RASA1 / RFU, RB1 / Fold change vs veh, RB1 / RFU, PPFIA1 / Fold change vs veh, PPFIA1 / RFU, MAT2A / Fold change vs veh, MAT2A / RFU, CCT5 / Fold change vs veh, CCT5 / RFU, WDR92 / Fold change vs veh, WDR92 / RFU, CUX1 / Fold change vs veh, CUX1 / RFU, TTC7A / Fold change vs veh, TTC7A / RFU, TMEM135 / Fold change vs veh, TMEM135 / RFU, DEPTOR / Fold change vs veh, DEPTOR / RFU, CPM / Fold change vs veh, CPM / RFU, DNAJB6 / Fold change vs veh, DNAJB6 / RFU, CACNA2D3 / Fold change vs veh, CACNA2D3 / RFU, DTX4 / Fold change vs veh, DTX4 / RFU, TFCP2 / Fold change vs veh, TFCP2 / RFU, GMCL1 /// GMCL1P1 / Fold change vs veh, GMCL1 /// GMCL1P1 / RFU, AEBP2 / Fold change vs veh, AEBP2 / RFU, SNHG1 /// SNORD22 /// SNORD25 /// SNORD26 /// SNORD27 /// SNORD28 /// SNORD29 /// SNORD31 / Fold change vs veh, SNHG1 /// SNORD22 /// SNORD25 /// SNORD26 /// SNORD27 /// SNORD28 /// SNORD29 /// SNORD31 / Fold change (Aza/veh), C12orf56 (ProbeSet 11735607_a_at) / Fold change (ACY-1035/veh), C12orf56 (ProbeSet 11735607_a_at) / Fold change (Aza/veh), FGFR1OP (ProbeSet 11751329_s_at) / Fold change (ACY-1035/veh), FGFR1OP (ProbeSet 11751329_s_at) / Fold change (Aza/veh), VPS36 (ProbeSet 11739960_a_at) / Fold change (ACY-1035/veh), VPS36 (ProbeSet 11739960_a_at) / RFU SYPL1 (11715823_x_at) / Fold change /veh SYPL1 (11715823_x_at) / RFU IGFBP7 (11715501_s_at) / Fold change /veh IGFBP7 (11715501_s_at) / RFU REEP3 (11722064_at) / Fold change /veh REEP3 (11722064_at) / RFU IGLL1 (11728026_x_at) / Fold change /veh IGLL1 (11728026_x_at): dose or concentration left out as unconfirmed
Settings: MV-4-11 cells, 48 hours

Q: How did the “RFU OR2T12 /// OR2T33 /// OR2T8 (11738714_s_at)” value turn out when `Nc1ccc(-c2cccs2)cc1NC(=O)c1ccc2c(c1)cc(C1CC1)n2CCN1CCOCC1` [ACY-1035] was run?
A: 6.34 RFU
